PubChem BioAssay AID256 (DTP/NCI, 2004)
“And” between values parts separate entries of the source, which are not always exact repeats. Identical values can stand only once. Toxic doses and inconclusive results are not listed. The calls were made as follows: active = survival T/C of 150% or more; inactive = T/C below 125% in these data.

Tested on: CD2F1 mice, L1210 leukemia ip, survival T/C
Test: NCI In Vivo Anticancer Drug Screen. Data for tumor model L1210 Leukemia (intraperitoneal) in CD2F1 (CDF1) mice
Conditions: endpoint: mean survival time, higher = longer survival
Procedure, shortened: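 Transplantable tumor in mice; compound-treated vs vehicle-treated groups. Read-out = treated/control ratio of the measured endpoint.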

[1] = dose: 100.0 mg/kg/injection, schedule: Q04DX002 (ip), vehicle: saline with Tween-80
[2] = dose: 200.0 mg/kg/injection, schedule: Q04DX002 (ip), vehicle: saline with Tween-80
[3] = dose: 100.0 mg/kg/injection, schedule: Q01DX001 (ip), vehicle: saline
[4] = dose: 100.0 mg/kg/injection, schedule: Q04DX003 (ip), vehicle: saline
[5] = dose: 200.0 mg/kg/injection, schedule: Q04DX003 (ip), vehicle: saline
[6] = dose: 400.0 mg/kg/injection, schedule: Q04DX003 (ip), vehicle: saline
[7] = dose: 400.0 mg/kg/injection, schedule: Q04DX002 (ip), vehicle: saline with Tween-80
[8] = dose: 75.0 mg/kg/injection, schedule: Q01DX001 (ip), vehicle: saline
[9] = dose: 100.0 mg/kg/injection, schedule: Q01DX001 (ip), vehicle: saline with Tween-80
[10] = dose: 200.0 mg/kg/injection, schedule: Q01DX001 (ip), vehicle: saline with Tween-80
[11] = dose: 400.0 mg/kg/injection, schedule: Q01DX001 (ip), vehicle: saline with Tween-80
[12] = dose: 100.0 mg/kg/injection, schedule: Q01DX009 (ip), vehicle: other
[13] = dose: 100.0 mg/kg/injection, schedule: Q01DX009 (ip), vehicle: saline with Tween-80
[14] = dose: 200.0 mg/kg/injection, schedule: Q01DX009 (ip), vehicle: saline with Tween-80
[15] = dose: 400.0 mg/kg/injection, schedule: Q01DX009 (ip), vehicle: saline with Tween-80
[16] = dose: 100.0 mg/kg/injection, schedule: Q04DX003 (ip), vehicle: saline with Tween-80
[17] = dose: 200.0 mg/kg/injection, schedule: Q04DX003 (ip), vehicle: saline with Tween-80
[18] = dose: 400.0 mg/kg/injection, schedule: Q04DX003 (ip), vehicle: saline with Tween-80
[19] = dose: 50.0 mg/kg/injection, schedule: Q01DX009 (ip), vehicle: saline with Tween-80

Measured: T/C

CNc1nc(N)[nH]c(=O)c1N=O
inactive: dose: 50.0 mg/kg/injection, schedule: Q04DX002 (ip), vehicle: saline with Tween-80 105 % of control | [1] 102 % of control | [2] 105 % of control

Cc1nc(N)nc2ccccc12
inactive: [3] 100 % of control

CS(=O)(=O)c1cnc2ccccc2n1
inactive: [4] 97 % of control | [5] 86 % of control | [6] 95 % of control

COc1cc(C2=N/C(=C\c3ccc(Cl)c(Cl)c3)C(=O)O2)cc(OC)c1OC
inactive: [1] 114 % of control | [2] 95 % of control | [7] 100 % of control

CCC(N)C(O)C(C)C (centres undefined)
inactive: [3] 105 % of control | dose: 200.0 mg/kg/injection, schedule: Q01DX001 (ip), vehicle: saline 90 % of control | dose: 400.0 mg/kg/injection, schedule: Q01DX001 (ip), vehicle: saline 96 % of control

CC(=O)C1CC(=O)c2c(O)ccc(O)c2C1 (centres undefined)
inactive: dose: 12.5 mg/kg/injection, schedule: Q01DX009 (ip), vehicle: water 95 % of control | dose: 25.0 mg/kg/injection, schedule: Q01DX009 (ip), vehicle: water 101 % of control | dose: 50.0 mg/kg/injection, schedule: Q01DX009 (ip), vehicle: water 95 % of control | dose: 100.0 mg/kg/injection, schedule: Q01DX009 (ip), vehicle: water 100 % of control | dose: 200.0 mg/kg/injection, schedule: Q01DX009 (ip), vehicle: water 100 % of control

O=C1CCC2(Cc3ccccc3C2=O)O1 (centres undefined)
inactive: [8] 94 % of control | dose: 150.0 mg/kg/injection, schedule: Q01DX001 (ip), vehicle: saline 96 % of control | dose: 300.0 mg/kg/injection, schedule: Q01DX001 (ip), vehicle: saline 94 % of control

Cc1ccc(S(=O)(=O)Nc2ccccc2OCCOCCOc2ccccc2NS(=O)(=O)c2ccc(C)cc2)cc1
inactive: [9] 103 % of control | [10] 91 % of control | [11] 95 % of control

CC1=C(C)C(COS(=O)(=O)c2ccc(C)cc2)C1COS(=O)(=O)c1ccc(C)cc1 (centres undefined)
inactive: [4] 97 % of control | [5] 97 % of control | [6] 95 % of control

Nc1cncc([N+](=O)[O-])c1N
inactive: [9] 98 % of control | [10] 101 % of control | [11] 101 % of control

C/C(CCc1ccccc1)=N/O
inactive: [12] 100 % of control | dose: 200.0 mg/kg/injection, schedule: Q01DX009 (ip), vehicle: other 103 % of control | dose: 400.0 mg/kg/injection, schedule: Q01DX009 (ip), vehicle: other 101 % of control

COc1cccc(OC)c1C1=CCCCCC1
inactive: [9] 96 % of control | [13] 101 % of control | [10] 98 % of control | [14] 97 % of control | [11] 93 % of control | [15] 104 % of control

NCCC(=O)CN
inactive: dose: 100.0 mg/kg/injection, schedule: Q01DX009 (ip), vehicle: saline 110 % of control | [4] 100 % of control | dose: 200.0 mg/kg/injection, schedule: Q01DX009 (ip), vehicle: saline 101 % of control | [5] 107 % of control | dose: 400.0 mg/kg/injection, schedule: Q01DX009 (ip), vehicle: saline 91 % of control | [6] 98 % of control

Cc1cccc(NC(=S)N(C)C)c1
inactive: [16] 104 % of control | [17] 102 % of control | [18] 94 % of control

CC(C)(C#N)Nc1ccccc1
inactive: dose: 3.13 mg/kg/injection, schedule: Q01DX009 (ip), vehicle: saline 100 % of control | dose: 6.25 mg/kg/injection, schedule: Q01DX009 (ip), vehicle: saline with Tween-80 91 % of control | dose: 6.25 mg/kg/injection, schedule: Q01DX009 (ip), vehicle: saline 94 % of control | dose: 12.5 mg/kg/injection, schedule: Q01DX009 (ip), vehicle: saline with Tween-80 94 % of control

Brc1ccc2sc3ccccc3c2c1
inactive: [1] 102 % of control | [2] 89 % of control | [7] 91 % of control

CCCCCCCCCCCCCCCCCC(=O)NCCN(CC)CC
inactive: [8] 101 % of control

CCc1ccc(CC)c(CC)c1CC
inactive: [19] 98 % of control | [13] 95 % of control | [16] 98 % of control | [14] 92 % of control | [17] 104 % of control

C(#Cc1ccccc1)C[P+](c1ccccc1)(c1ccccc1)c1ccccc1
inactive: dose: 1.25 mg/kg/injection, schedule: Q01DX009 (ip), vehicle: saline with Tween-80 95 % of control | dose: 2.5 mg/kg/injection, schedule: Q01DX009 (ip), vehicle: saline with Tween-80 101 % of control | dose: 5.0 mg/kg/injection, schedule: Q01DX001 (ip), vehicle: saline with Tween-80 102 % of control | dose: 5.0 mg/kg/injection, schedule: Q01DX009 (ip), vehicle: saline with Tween-80 93 % of control and 103 % of control | dose: 10.0 mg/kg/injection, schedule: Q01DX001 (ip), vehicle: saline with Tween-80 106 % of control | dose: 20.0 mg/kg/injection, schedule: Q01DX001 (ip), vehicle: saline with Tween-80 104 % of control

CC(C)NC(=O)c1ccc(N=NN(C)C)cc1
inactive: dose: 12.5 mg/kg/injection, schedule: Q01DX009 (ip), vehicle: other 91 % of control and 105 % of control | dose: 25.0 mg/kg/injection, schedule: Q01DX009 (ip), vehicle: DMSO 104 % of control | dose: 25.0 mg/kg/injection, schedule: Q01DX009 (ip), vehicle: other 119 % of control and 100 % of control | dose: 50.0 mg/kg/injection, schedule: Q01DX009 (ip), vehicle: DMSO 110 % of control | [12] 119 % of control

O=[As](O)(CC(O)COc1ccc(Cl)cc1Cl)c1cccc(Cl)c1 (centres undefined)
inactive: dose: 6.25 mg/kg/injection, schedule: Q04DX003 (ip), vehicle: saline with Tween-80 98 % of control | dose: 12.5 mg/kg/injection, schedule: Q04DX003 (ip), vehicle: saline with Tween-80 110 % of control

Cc1cc(O)c(O)c([N+](=O)[O-])c1
inactive: [13] 95 % of control | [14] 97 % of control | [15] 97 % of control

C=CCSc1cccc2ccccc12
inactive: [13] 90 % of control | [16] 104 % of control | [14] 96 % of control | [17] 104 % of control | [18] 106 % of control

Nc1ccccc1-c1ccccc1N
inactive: dose: 100.0 mg/kg/injection, schedule: Q04DX002 (ip), vehicle: saline 87 % of control

Cc1ccc(S(=O)(=O)N/N=C/c2ccc(O)c(O)c2)cc1
inactive: dose: 12.5 mg/kg/injection, schedule: Q04DX003 (ip), vehicle: other 101 % of control | dose: 25.0 mg/kg/injection, schedule: Q04DX003 (ip), vehicle: other 98 % of control | dose: 50.0 mg/kg/injection, schedule: Q04DX003 (ip), vehicle: other 101 % of control | dose: 100.0 mg/kg/injection, schedule: Q04DX003 (ip), vehicle: other 101 % of control | dose: 200.0 mg/kg/injection, schedule: Q04DX003 (ip), vehicle: other 95 % of control | dose: 400.0 mg/kg/injection, schedule: Q04DX003 (ip), vehicle: other 101 % of control

C/C=C1/C(=O)Oc2ccccc21
inactive: [19] 101 % of control | [13] 101 % of control | [14] 106 % of control

Cc1ccc([N+](=O)[O-])cc1NC(=O)NNC(=O)CNC(=O)Nc1cccc([N+](=O)[O-])c1
inactive: [13] 88 % of control | [14] 86 % of control | [15] 104 % of control

Cc1ccc(-c2[nH]c(=S)[nH]c(=O)c2CCO)cc1
inactive: [16] 91 % of control | [17] 97 % of control | [18] 93 % of control

Oc1c(O)c(Br)c(Br)c(Br)c1Br
inactive: dose: 100.0 mg/kg/injection, schedule: Q01DX001 (ip), vehicle: other 98 % of control | dose: 200.0 mg/kg/injection, schedule: Q01DX001 (ip), vehicle: other 103 % of control

COCNC(=S)N/N=C/c1ccc(O)cn1
inactive: [1] 95 % of control | [2] 98 % of control | [7] 102 % of control

C[n+]1c(/C=C\c2cccc([N+](=O)[O-])c2)ccc2ccccc21
inactive: [9] 106 % of control | [13] 87 % of control | [10] 95 % of control | [14] 91 % of control | [11] 107 % of control | [15] 95 % of control
